{"source": "patent US12070444B2", "about": "“Modulation of molecular markers using S-equol” (Board of Regents, The University of Texas System, priority 2020, dated 2024)", "key": {"[1]": {"test_system": "AT3 mammary tumor cell line", "assay": "AT3 mammary tumor challenge in mice treated with S-equol and/or anti-PD-1 antibody", "type": "in vivo, mouse", "procedure": "(§1) The following three murine mammary tumor lines were tested to determine the effects of a PD-1 inhibitor, S-equol and a combination of the two therapies on tumor growth: (1) E0771 (B6 background), (2) AT-3 (B6 background), and (3) 4T1 (BalbC background). This experimental design includes four arms (using AT-3 as an example): (1) controls, (2) αPD-1, (3) S-equol, and (4) αPD-1+S-equol (FIG. 3) by injecting into mice 2×10^5 cells subcutaneously into the 4th mammary gland fat pad. Antibodies were administered α-PD-1: 200 μg/mice by i.p. injection every 3 days and S-equol was administered at 50 mg/kg/day by oral gavage. Treatment began 7 day after tumor challenge. Tumor growth trajectories were compared within treated mice using a repeated measures linear mixed model. The primary outcome was the logarithm of the tumor size, and the test statistic is the treatment×time interaction. Tumors were measured about 10 times. The number of recipient mice use used in the studies (n=8 per group) was based on the above study.\nFor tumor studies, 8 to 10-week-old mice were used. M-Wnt (5 Å˜10^5 cells), E0771 (5 Å˜10^5 cells), AT-3 (2 Å˜10^5 cells), and EMT-6 (5 Å˜10^5 cells) tumor cells were subcutaneously inoculated into the fourth mammary pad. B16F10 (0.5 Å˜10^6 cells) and MC38 (5 Å˜10^6 cells) tumor cells were subcutaneously inoculated into the back flank. Tumor volume was measured with calipers (0.5 Å˜length Å˜width2) on the indicated days. Anti-IgG2a (BioXcell, Cat: #BE0146) and anti-PD-1 (BioXcell, Cat: #BE0089) antibodies were administered through intraperitoneal (i.p.) injection at a dose of […] every 3 days starting on day 7 after tumor challenge for the duration as indicated. S-equol (from Ausio Pharmaceuticals) was administered daily by oral gavage at 50 mg/kg beginning on the day of tumor challenge and continuing throughout the entire tumor growth experiments."}, "[2]": {"test_system": "E0771 mammary tumor cell line", "assay": "E0771 mammary tumor challenge in mice treated with S-equol and/or anti-PD-1 antibody", "type": "in vivo, mouse", "conditions": "E0771 mammary tumor model, Example 14, four arms (FIG. 33A-B)", "procedure": "as §1\nFor tumor studies, 8 to 10-week-old mice were used. M-Wnt (5 Å˜10^5 cells), E0771 (5 Å˜10^5 cells), AT-3 (2 Å˜10^5 cells), and EMT-6 (5 Å˜10^5 cells) tumor cells were subcutaneously inoculated into the fourth mammary pad. […] Tumor volume was measured with calipers (0.5 Å˜length Å˜width2) on the indicated days. […]"}, "ERβ": {"target": "T1, ERβ (Mus musculus, UniProt O08537)", "T1 construct": "endogenous in cells; b180 instead says mouse 'EF4' (probably EL4) lymphoma cells", "T1 sequence (O08537 whole entry)": "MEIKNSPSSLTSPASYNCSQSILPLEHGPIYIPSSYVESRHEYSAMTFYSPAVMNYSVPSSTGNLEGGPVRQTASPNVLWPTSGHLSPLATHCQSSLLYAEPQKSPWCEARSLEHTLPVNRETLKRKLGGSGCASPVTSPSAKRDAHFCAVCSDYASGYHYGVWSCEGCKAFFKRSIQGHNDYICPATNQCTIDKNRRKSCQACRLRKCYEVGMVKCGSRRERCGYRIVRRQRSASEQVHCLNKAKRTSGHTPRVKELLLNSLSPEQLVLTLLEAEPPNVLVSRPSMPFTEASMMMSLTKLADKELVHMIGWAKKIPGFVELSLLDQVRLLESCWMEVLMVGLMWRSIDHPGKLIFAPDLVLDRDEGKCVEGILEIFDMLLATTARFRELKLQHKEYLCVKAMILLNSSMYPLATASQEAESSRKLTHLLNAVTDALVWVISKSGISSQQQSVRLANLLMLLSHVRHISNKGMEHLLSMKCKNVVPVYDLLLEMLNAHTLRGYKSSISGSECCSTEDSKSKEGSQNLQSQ", "assay": "TCR activated ERβ tyrosine phosphorylation after anti-CD3/CD28 stimulation (IP-Western blot)", "type": "cell-based", "conditions": "anti-CD3/CD28-stimulated cells, pretreated with S-equol for 4 hrs (FIG. 26A)", "source_text": "FIG. 26. ERβ agonist S-equol promotes CD8+ T cell activation and antitumor immunotherapy. […] FIGS. 26B and 26C show B16 melanoma growth and tumor weight from wild type C57BL/6J male mice with four arm treatments. Vehicle+α-IgG, 5-equol+α-IgG, Vehicle+α-PD-1, S-equol+α-PD-1. […] Vehicle+α-IgG, S-equol+α-IgG, Vehicle+α-PD-1, S-equol+α-PD-1. GSEA analysis in ERβ-high versus ERβ-low human melanoma TILs (tumor infiltrating lymphocytes). The enrichment of (FIG. 26F) NFAT pathway and (FIG. 26G) TNFα signaling were evaluated.\nCells were stained and sorted as previously described (Clark, 2016), using LSR II and FACSAria hardware and analyzed by FACSDiva (BD Bioscience) and FlowJo software (FlowJo, LLC). CD8+ T cell isolation and in vitro activationCD8+ T cells were isolated from the spleens under aseptic conditions. Individual spleens were homogenized to release splenocytes. […] Single-cell suspensions from individual spleens were pooled, filtered through 70 μm and 40 μm cell strainer (Fisher) and counted. […]\nIsolated mouse spleen and bone marrow were lysed in RIPA Lysis and 218 Extraction Buffer. Protein amounts were determined by using Pierce BCA Protein Assay Kits (Pierce, Cat: #23225). […] Proteins were detected with ECL SuperSignal™ West Pico PLUS Chemiluminescent Substrate (Thermo Fisher, Cat. #34580)."}, "cytochrome oxidase (COX)": {"test_system": "cytochrome oxidase (COX)", "conditions": "brains from ovariectomized mice; cited from earlier work"}}}
{"smiles": "Oc1ccc([C@H]2COc3cc(O)ccc3C2)cc1", "note": "[S-equol]", "values": [{"measurement": "tumor weight", "setting": "[1]; AT3 (FIG. 12B)", "value": "reduce tumor weight compared to control"}, {"measurement": "tumor size", "setting": "[1]; AT3, excised tumors (FIG. 12C)", "value": "reduce tumor size compared to control"}, {"measurement": "tumor volume", "setting": "[1]; AT3, anti-PD-1 200 μg every 3 days, S-equol 50 mg/kg per day, over 35 days post-challenge (FIG. 12A)", "value": "reduce tumor volume compared to control"}, {"measurement": "tumor response (volume and weight)", "setting": "[2]", "value": "responded"}, {"measurement": "TCR activated ERβ tyrosine phosphorylation", "setting": "ERβ", "value": "further enhanced"}, {"measurement": "cytochrome oxidase (COX) activity and COX1 protein levels", "setting": "cytochrome oxidase (COX)", "value": "increase"}]}
